Measured values taken from PubChem BioAssay AID248 (DTP/NCI, 2004).
Where “and” joins values, the source holds several entries; their conditions need not be identical. Identical values can stand only once. Toxic doses and inconclusive results are not listed. No stated cut-off is given here; in the data, active means T/C of 150% or more; inactive means T/C below 125%. Square brackets hold non-standard residues; d marks the D form. Peptide text beside a SMILES is read from it. ξ: configuration not given here. ξN = NC(=O)CC(N)C(=O)O

Tested on: L1210 leukemia ip in BDF1 mice, survival T/C
Assay: NCI In Vivo Anticancer Drug Screen. Data for tumor model L1210 Leukemia (intraperitoneal) in B6D2F1 (BDF1) mice
Settings: endpoint: mean survival time, higher = longer survival
Method in brief: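 Read-out is survival time, reported as the treated-group measurement over the vehicle-control measurement.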

[1] = dose: 50.0 mg/kg/injection, schedule: Q01DX009 (ip), vehicle: saline with Tween-80
[2] = dose: 100.0 mg/kg/injection, schedule: Q01DX009 (ip), vehicle: saline with Tween-80
[3] = dose: 200.0 mg/kg/injection, schedule: Q01DX009 (ip), vehicle: saline with Tween-80
[4] = dose: 100.0 mg/kg/injection, schedule: Q01DX001 (ip), vehicle: saline
[5] = dose: 100.0 mg/kg/injection, schedule: Q01DX009 (ip), vehicle: saline
[6] = dose: 200.0 mg/kg/injection, schedule: Q01DX001 (ip), vehicle: saline
[7] = dose: 200.0 mg/kg/injection, schedule: Q01DX009 (ip), vehicle: saline
[8] = dose: 400.0 mg/kg/injection, schedule: Q01DX001 (ip), vehicle: saline
[9] = dose: 400.0 mg/kg/injection, schedule: Q01DX009 (ip), vehicle: saline
[10] = dose: 50.0 mg/kg/injection, schedule: Q01DX001 (ip), vehicle: saline
[11] = dose: 100.0 mg/kg/injection, schedule: Q01DX009 (ip), vehicle: Klucel (hydroxypropylcellulose) (HPC)
[12] = dose: 100.0 mg/kg/injection, schedule: Q04DX003 (ip), vehicle: Klucel (hydroxypropylcellulose) (HPC)
[13] = dose: 200.0 mg/kg/injection, schedule: Q01DX009 (ip), vehicle: Klucel (hydroxypropylcellulose) (HPC)
[14] = dose: 200.0 mg/kg/injection, schedule: Q04DX003 (ip), vehicle: Klucel (hydroxypropylcellulose) (HPC)
[15] = dose: 400.0 mg/kg/injection, schedule: Q01DX009 (ip), vehicle: Klucel (hydroxypropylcellulose) (HPC)
[16] = dose: 400.0 mg/kg/injection, schedule: Q04DX003 (ip), vehicle: Klucel (hydroxypropylcellulose) (HPC)
[17] = dose: 400.0 mg/kg/injection, schedule: Q01DX009 (ip), vehicle: saline with Tween-80
[18] = dose: 100.0 mg/kg/injection, schedule: Q04DX003 (ip), vehicle: saline with Tween-80
[19] = dose: 200.0 mg/kg/injection, schedule: Q04DX003 (ip), vehicle: saline with Tween-80
[20] = dose: 400.0 mg/kg/injection, schedule: Q04DX003 (ip), vehicle: saline with Tween-80

Measured: T/C

CC(=O)c1cc(N)ccc1SC#N
inactive: dose: 5.0 mg/kg/injection, schedule: Q01DX009 (ip), vehicle: saline with Tween-80 102 % of control | dose: 5.0 mg/kg/injection, schedule: Q04DX003 (ip), vehicle: saline with Tween-80 101 % of control | dose: 10.0 mg/kg/injection, schedule: Q01DX009 (ip), vehicle: saline with Tween-80 96 % of control | dose: 10.0 mg/kg/injection, schedule: Q04DX003 (ip), vehicle: saline with Tween-80 101 % of control | dose: 20.0 mg/kg/injection, schedule: Q01DX009 (ip), vehicle: saline with Tween-80 100 % of control | dose: 20.0 mg/kg/injection, schedule: Q04DX003 (ip), vehicle: saline with Tween-80 103 % of control

C/C(=N\O)c1ccc(OCC(O)CN2CCN(c3ccccc3)CC2)cc1 (centres undefined)
inactive: dose: 37.5 mg/kg/injection, schedule: Q04DX003 (ip), vehicle: saline with Tween-80 101 % of control | [1] 103 % of control | dose: 75.0 mg/kg/injection, schedule: Q04DX003 (ip), vehicle: saline with Tween-80 93 % of control | [2] 108 % of control | dose: 150.0 mg/kg/injection, schedule: Q04DX003 (ip), vehicle: saline with Tween-80 101 % of control | [3] 115 % of control

COc1ccccc1-n1c(O)c(N=Nc2ccc(C)cc2)c(=O)n(-c2ccccc2)c1=S
inactive: dose: 100.0 mg/kg/injection, schedule: Q01DX001 (ip), vehicle: Klucel (hydroxypropylcellulose) (HPC) 103 % of control | dose: 200.0 mg/kg/injection, schedule: Q01DX001 (ip), vehicle: Klucel (hydroxypropylcellulose) (HPC) 97 % of control | dose: 400.0 mg/kg/injection, schedule: Q01DX001 (ip), vehicle: Klucel (hydroxypropylcellulose) (HPC) 91 % of control

O=C1CC2CC1C(C(=O)O)C2C(=O)O (centres undefined)
inactive: [4] 98 % of control | [5] 96 % of control | [6] 96 % of control | [7] 96 % of control | [8] 96 % of control and 98 % of control | [9] 98 % of control

O=C(Cl)c1ccccc1Sc1ccccc1
inactive: dose: 25.0 mg/kg/injection, schedule: Q01DX009 (ip), vehicle: saline with Tween-80 106 % of control | [1] 97 % of control | [2] 92 % of control

CC(C)CC(CC(C)C)C(=O)C1C2CCC(O2)C1C(=O)C(CC(C)C)CC(C)C (centres undefined)
inactive: dose: 6.25 mg/kg/injection, schedule: Q04DX002 (ip), vehicle: saline with Tween-80 94 % of control | dose: 12.5 mg/kg/injection, schedule: Q04DX002 (ip), vehicle: saline with Tween-80 94 % of control | dose: 25.0 mg/kg/injection, schedule: Q04DX002 (ip), vehicle: saline with Tween-80 86 % of control

O=C(CCCC(=O)N/N=C/c1c(Cl)cccc1Cl)N/N=C\c1c(Cl)cccc1Cl
inactive: [10] 100 % of control | [4] 106 % of control | [6] 100 % of control | [8] 103 % of control

O=C1c2ccccc2C(=O)C1(Br)C(Br)c1ccccc1 (centres undefined)
inactive: [11] 102 % of control | [12] 96 % of control | [13] 101 % of control | [14] 94 % of control | [15] 93 % of control | [16] 96 % of control

Cc1ccc2ccccc2c1NS(=O)(=O)c1ccccc1
inactive: dose: 100.0 mg/kg/injection, schedule: Q01DX001 (ip), vehicle: saline sonified 95 % of control | [2] 90 % of control | dose: 200.0 mg/kg/injection, schedule: Q01DX001 (ip), vehicle: saline sonified 95 % of control | [3] 90 % of control | dose: 400.0 mg/kg/injection, schedule: Q01DX001 (ip), vehicle: saline sonified 97 % of control | [17] 88 % of control

O=S(Cc1ccccc1)Cc1ccccc1
inactive: [10] 110 % of control | [4] 110 % of control | [11] 103 % of control | [12] 90 % of control | [6] 103 % of control | [13] 100 % of control | [14] 97 % of control | [8] 100 % of control | [15] 102 % of control | [16] 100 % of control

Nc1c(C(=O)O)cccc1C(=O)O
inactive: [2] 98 % of control | [18] 110 % of control | [3] 107 % of control | [19] 108 % of control | [17] 107 % of control | [20] 96 % of control

Cc1c(CC(=O)O)c(=O)n(-c2ccccc2)n1C
inactive: dose: 75.0 mg/kg/injection, schedule: Q04DX003 (ip), vehicle: Klucel (hydroxypropylcellulose) (HPC) 105 % of control | dose: 150.0 mg/kg/injection, schedule: Q04DX003 (ip), vehicle: Klucel (hydroxypropylcellulose) (HPC) 101 % of control | dose: 300.0 mg/kg/injection, schedule: Q04DX003 (ip), vehicle: Klucel (hydroxypropylcellulose) (HPC) 104 % of control

NCC(=O)NC(CC(N)=O)C(=O)O (centres undefined) (H-Gly-[ξN]-OH)
inactive: [5] 97 % of control | [7] 102 % of control | [9] 97 % of control

N#C/C(=C1C=C/C(=N/O)C(Br)=C/1)c1ccccc1
inactive: [18] 96 % of control | [19] 100 % of control | [20] 98 % of control

CCCCCCCCCCCCCCCCC(Oc1ccc(Cl)cc1Cl)C(=O)O (centres undefined)
inactive: [12] 102 % of control | [14] 98 % of control | [16] 101 % of control

C/C=C/C(=O)Nc1cccc(OC(=O)NC(C)C)c1
inactive: [18] 95 % of control | [19] 93 % of control | [20] 87 % of control

Cc1ccccc1NP1(=O)OCCCN1Cc1ccccc1Cl (centres undefined)
inactive: dose: 50.0 mg/kg/injection, schedule: Q01DX001 (ip), vehicle: carboxymethylcellulose (CMC) 104 % of control | dose: 100.0 mg/kg/injection, schedule: Q01DX001 (ip), vehicle: carboxymethylcellulose (CMC) 96 % of control | dose: 200.0 mg/kg/injection, schedule: Q01DX001 (ip), vehicle: carboxymethylcellulose (CMC) 98 % of control | dose: 400.0 mg/kg/injection, schedule: Q01DX001 (ip), vehicle: carboxymethylcellulose (CMC) 95 % of control

CCNc1nc(N)nc2n[nH]nc12
inactive: [1] 95 % of control | dose: 50.0 mg/kg/injection, schedule: Q04DX003 (ip), vehicle: saline with Tween-80 98 % of control | dose: 100.0 mg/kg/injection, schedule: Q01DX001 (ip), vehicle: saline with Tween-80 101 % of control | [2] 89 % of control | [18] 101 % of control | dose: 200.0 mg/kg/injection, schedule: Q01DX001 (ip), vehicle: saline with Tween-80 94 % of control | [3] 89 % of control | [19] 98 % of control

NC(=O)CNC(=O)C(CSCc1ccccc1)NC(=O)OCc1ccccc1 (centres undefined)
inactive: dose: 25.0 mg/kg/injection, schedule: Q01DX009 (ip), vehicle: Klucel (hydroxypropylcellulose) (HPC) 89 % of control | dose: 50.0 mg/kg/injection, schedule: Q01DX009 (ip), vehicle: Klucel (hydroxypropylcellulose) (HPC) 93 % of control | [11] 94 % of control | [12] 90 % of control

COc1cc(Cl)ccc1NC(=O)OCc1ccco1
inactive: [5] 111 % of control | [7] 111 % of control | [9] 100 % of control

Oc1c(CN2CCCC2)cc(Nc2nccc(/C=C/c3ccc(Cl)cc3)n2)cc1CN1CCCC1
inactive: dose: 25.0 mg/kg/injection, schedule: Q04DX003 (ip), vehicle: saline 96 % of control | [10] 96 % of control | dose: 50.0 mg/kg/injection, schedule: Q04DX003 (ip), vehicle: saline 96 % of control | [4] 93 % of control | dose: 100.0 mg/kg/injection, schedule: Q04DX003 (ip), vehicle: saline 90 % of control

NC(=O)c1ccccc1NC(=O)Nc1ccccc1
inactive: [11] 98 % of control | [12] 102 % of control | [13] 94 % of control | [14] 96 % of control | [15] 89 % of control | [16] 94 % of control

Nc1cc(C(=O)Nc2cccc(C3=NCCN3)c2)ccc1C(=O)Nc1cccc(C2=NCCN2)c1
inactive: dose: 7.5 mg/kg/injection, schedule: Q01DX Z (ip), vehicle: saline 113 % of control | dose: 10.0 mg/kg/injection, schedule: Q01DX Z (ip), vehicle: saline 110 % of control

O=S(=O)(O)c1ccc(CCCCCCCCl)cc1
inactive: dose: 100.0 mg/kg/injection, schedule: Q04DX002 (ip), vehicle: Klucel (hydroxypropylcellulose) (HPC) 100 % of control | dose: 200.0 mg/kg/injection, schedule: Q04DX002 (ip), vehicle: Klucel (hydroxypropylcellulose) (HPC) 90 % of control

Nc1ccc(SCCCCCCSc2ccc(N)cc2)cc1
inactive: dose: 100.0 mg/kg/injection, schedule: Q04DX003 (ip), vehicle: other 94 % of control
